In test [1] the test system is articular chondrocytes. The experiment in a line: Increase of matrix production of articular chondrocytes (Alcian blue staining of proteoglycan). In kind it is cell-based, rabbit. The following applies: for Proteoglycan Production (%): cultivation until day 5, vehicle = 100; for matrix production promoting activity: summary of Table 1. As for the experimental part:
Four NZW line rabbits (Kitayama Labes., Co Ltd.; male; 4-week-old) were sacrificed with bleeding under ether anesthesia and femur knee joints were collected aseptically. The collected knee joints were stored in phosphate buffer (pH 7.2) containing 0.2% glucose and only the cortical layer of knee joint was scrapped with a surgical knife into a 50 ml tube containing phosphate buffer (pH 7.2) containing 0.2% glucose. The collected knee joint cortical layer was cut into as small sections as possible on a dish with a razor and shaken at 37° C. for 15 minutes in phosphate buffer containing 0.2% glucose, supplied with 10× trypsin-ethylenediamine tetraacetic acid (EDTA)·4 Na salt (GIBCO; Cat. No. 15400-054) (50 ml, with 100 mg of trypsin and 40 mg of EDTA·4Na; pH 7.2). After shaking, the sample was centrifuged (1,400 rpm) to collect precipitates, and the precipitates were washed twice with 40 ml of phosphate buffer containing 0.2% glucose. The washed precipitates were combined with 40 ml of serum-free α-minimum essential medium (MEM: GIBCO; Cat: No. 12571-063) containing 60 mg of collagenase for cell diffusion (Wako Pure Chemical Industries, Ltd., 034-10533) and transferred to a 100 ml beaker containing a sterilized stirrer bar. Under stirring with the stirrer bar, the collagenase digestion was carried on for about 1 hour in a CO2 incubator at 37° C. Cartilage fragments were removed from the collagenase-treated cells using a […] Cell Strainer ([FALCON; Cat. No. 2340]). To the residual treated cells was added 10 ml of α-MEM medium containing 10% fetal calf serum (FCS), and centrifuged (1,400 rpm). The precipitates were washed with 10% FCS-αMEM medium twice, suspended in appropriate volume of the same medium and the resultant suspension was seeded into collagen type II (Wako Pure Chemical Industries, Ltd., 033-13901)-coated plates (48 well) at 20,000 cells/well. On the next day, the medium was replaced with 10% FCS-αMEM medium.
When cells reached to confluent after the medium exchange procedure above, the medium for test group was replaced with test compound-containing medium (including 0.1% dimethylsulfoxide as a vehicle). As a medium to which a test compound is added, 10% FCS-αMEM medium containing 0.2 mM ascorbic acid was used. The day on which test compound-containing medium was added for the first time was defined as “day 1”. The medium exchange with the same medium was again conducted at day 3 and the cultivation continued until day 5. As to the control group, the medium was exchanged at the same time using the same medium as the test group except that it is free of test compound (containing vehicle only), and the cultivation was carried out in the same manner. After completion of cultivation, the supernatant was removed from the culture medium. Cells were fixed by addition of 0.25 ml of neutral buffer containing 4% paraformaldehyde and incubation for 2 hours. Cells were washed three times with 1 ml of phosphate buffer (pH 7.2) and then stained for 4 hours with 0.1% Alcian blue 8GX (Sigma; A3157) dissolved in 0.1 M hydrochloric acid, which Alcian blue selectively stains cartilage matrix proteoglycan. After staining, the cells were washed 3 times with 1 ml of phosphate buffer (pH 7.2). Alcian blue which had stained cartilage matrix was dissolved with 0.25 ml of aqueous 6 M guanidine hydrochloride solution and a portion of the solution was used to determine the absorbance at 620 nm. The amounts of Alcian blue used for staining was calculated from the absorbance, which in turn was used for the estimation of the amount of matrix (proteoglycan).

Test [2] deals with rabbit articular chondrocytes. The experiment in a line: Matrix production of rabbit articular chondrocytes in the presence of IL-1. As to conditions: 1 × 10^−6 M; IL-1β 1 ng/ml; until day 3; vehicle = 100. It is filed as cell-based. As for the experimental part: Four NZW line rabbits (Kitayama Labes., Co Ltd.; male; 4-week-old) were sacrificed with bleeding under ether anesthesia and knee joints of femur side were collected aseptically. Only the cortical layer was scrapped with a surgical knife in phosphate buffer (pH 7.2) containing 0.2% glucose and then placed into a 50 ml tube containing phosphate buffered saline containing 0.2% glucose. The collected knee joint cortical layer was cut into as small sections as possible on a dish with a razor, combined with 50 ml of phosphate buffer (100 mg trypsin, 40 mg EDTA·4 Na; pH 7.2) containing 0.2% glucose, supplied with 10× trypsin-ethylenediamine tetraacetic acid tetra sodium salt (EDTA·4Na: GIBCO; Cat. No. 15400-054) and shaken at 37° C. for 15 minutes.
After shaking, the precipitates were collected by centrifugation (1,400 rpm) and washed twice with 40 ml of phosphate buffer (pH 7.2) with 0.2% glucose.
To the washed precipitates was added 40 ml of α-minimum essential medium (MEM: GIBCO; Cat. No. 12571-063) containing 60 mg of collagenase for cell diffusion (Wako Pure Chemical Industries, Ltd., 034-10533) and antibiotics (200 U/ml penicillin G and 200 μg/ml streptomycin sulfate) (GIBCO; Cat. No. 15140-122), and the mixture was transferred to a 100 ml beaker containing a sterilized stirrer bar.
The incubation was conducted in a CO2 incubator at 37° C. for 30 minutes under stirring with a stirrer bar. Deoxyribonuclease I (Takara Shuzo Co., LTD.; Cat. No. 2210A) was then added at a concentration of 70 U/ml. The cultivation was conducted under the same condition for another 30 minutes. The supernatant of the culture was collected in another vessel and the remaining cartilage slips were then cultured again for about 30 minutes in freshly prepared α-minimum essential medium containing 60 mg of collagenase and 70 U/m1 deoxyribonuclease I.
To the previously collected culture supernatant and the last culture, from which cartilage slips had been removed using a 40 μm Cell Strainer (FALCON; Cat. No. 2340), 10 ml of α-minimum essential medium (MEM: GIBCO; Cat. No. 12571-063) containing 10% fetal calf serum (GIBCO Cat. No. 10099-141) and antibiotics (200 U/ml penicillin G and 200 μg/ml streptomycin sulfate) (GIBCO; Cat. No. 15140-122) was added and centrifuged (1,400 rpm, 10 minutes).
The precipitates were washed twice with α-minimum essential medium containing 10% fetal calf serum and antibiotics, suspended with an appropriate volume of the same medium, and seeded into 48-well plates (20,000 cells/well). […]
After staining, the cells were washed 3 times with 1 ml of phosphate buffer (pH 7.2). Alcian blue which had stained cartilage matrix was dissolved with 0.25 ml of 6 M aqueous guanidine hydrochloride solution and a portion of which was used to determine the absorbance at 620 nm. […]

For test [3], the system named is type II collagen gene. The experiment in a line: Expression of gene encoding cartilage matrix protein (Northern hybridization), type II collagen. In kind it is cell-based, rabbit. As to conditions: cultured 4 days, control = 100%. The procedure:
(§1) Total RNA was extracted with ISOGEN (Nippon Gene Co., Ltd.) from rabbit knee articular chondrocytes cultured for 4 days according to the same manner as Experimental Example 1 in the presence of Compound (1) at a final concentration of 1×10^−4 M or 1×10^−5 M, and 15 μg of the total RNA was dissolved in 4.5 μl of a sterilized water. This solution was combined with 2 μl of 5×MOPS buffer, 3.5 μl of formaldehyde and 10 μl of formamide, and denatured at 90° C. for 15 minutes. The mixture was then electrophoresed on 1% agarose gel in the presence of formaldehyde. After completion of electrophoresis, RNA was transferred to a nylon membrane (Amersham Pharmacia Biotech) overnight by capillary method. The RNA was fixed to the nylon membrane by UV crosslinking and subjected to prehybridization at 60° C. for 2 hours in 50 ml of hybridization solution (6×SSC, 5×Denhart's solution, 0.5% SDS, 100 μg/ml heat-denatured salmon sperm DNA, free of 50% formamide).
(§2) Then, DNA probes of mouse type II collagen gene and human aggrecan. […] The nylon membrane was subjected to an autoradiography and exposed to X-ray film using LAS-1000 (Fuji Photo Film Co., Ltd.) A relative amount of each RNA was measured using Image Gause (Fuji Photo Film Co., Ltd.) and corrected with […] (internal RNA: internal control). The gene expression rate in test group was calculated by assuming that in control group as 100%.

Test [4] relates to cAMP hydrolytic PDE expressed in human articular cartilage (fraction Nos. 28-30). The experiment in a line: Inhibition of cAMP hydrolyzing activity of fraction Nos. 28-30 of human articular cartilage extract. It is filed as biochemical. The procedure:
From the human knee articular cartilage was isolated on surgery of osteoarthrosis patients. Cartilage portion was scrapped with a surgery knife, washed with ice-cold phosphate buffer and stored at −80° C. The cartilage tissues were milled at −80° C. and then, scattered into pieces with homogenizer (Kinematica A.G., Polytron) in ice-cold homogenization buffer (20 mM Tris-HCl, pH 8.0, 1 mM ethylene glycol bis(β-aminoethylether)-N,N,N′,N′-tetraacetic acid, 1 mM dithiothreitol, 10 μg/ml leupeptin, 5 mM benzamidine, 0.2 mM phenylmethylsulfonyl fluoride, 1 mM sodium azide and 5 mM mercaptoethanol). The resultant homogenate was centrifuged (100,000×g; 30 minutes) to separate supernatant.
The above supernatant was loaded on a Mono Q Sepharose High Performance column (Amersham Pharmacia Biotech) equilibrated with elution buffer (20 mM Tris-HCl, pH 8.0, 1 mM ethylene glycol bis(β-aminoethylether)-N,N,N′,N′-tetraacetic acid, 1 mM dithiothreitol, 2 μg/ml leupeptin, 5 mM benzamidine). After washing the column with 20 ml of elution buffer, proteins were eluted into 1 ml fractions by aqueous sodium chloride solution (concentration gradient: 0 to 1000 mM, 70 ml) under ice-cooling. Each fraction was subjected to the determination of hydrolytic activity (PDE activity) toward cAMP and cGMP as a substrate.
The determination of PDE activity was performed by a radio-labeled nucleic acid assay. That is, the reaction was initiated by adding from 10 to 50 μl of elution fraction to 500 μl of assay buffer (50 mM Tris-HCl, pH 8.0, 5 mM magnesium chloride, 4 mM 2-mercaptoethanol) containing 1 μM of unlabeled cAMP and 22 nM of [^3H]-cAMP (Amersham Pharmacia Biotech).
After incubation at 37° C. for 30 minutes, the reaction was quenched by boiling for 1.5 minutes. Then, 100 μl of 1 mg/ml Crtalus atrox snake venom was added and incubated at 37° C. for 30 minutes. After addition of 500 μl of methanol, the reaction solution was subjected to Dowex column (1×8-400). To each eluate was added a liquid scintillation cocktail and the radio activity was measured.
The inhibitory activity of PDE4 inhibitor on fraction Nos. 28-30 containing potent cAMP hydrolyzing activity was measured according to the above-mentioned radio-labeled nucleic acid assay. The test compounds are Compound (1), Compound (2), Compound (11), Compound (44) and Compound (27).

For test [5], the system named is aggrecan gene. The experiment in a line: Expression of gene encoding cartilage matrix protein (Northern hybridization), aggrecan. In kind it is cell-based, rabbit. As to conditions: cultured 4 days, control = 100%. The procedure: as §1, §2

Consider `COc1ccc([C@H](Cc2ccncc2)c2ccccc2)cc1OC1CCCC1` [Compound (21)], for which the “Proteoglycan Production (%)” value in test [1] (1 × 10^−5 M) was 120%; in test [1] (1 × 10^−6 M) it was 115%. For the same compound, the “matrix production promoting activity” value in test [1] was “exert matrix production promoting activity”.

With `COc1ccc([C@]2(C#N)CC[C@H](C(=O)O)CC2)cc1OC1CCCC1` [Compound (27)], the “Proteoglycan Production (%)” value is 131% in test [1] (1 × 10^−5 M) and 129% in test [1] (1 × 10^−6 M). Besides, the “matrix production promoting activity” value in test [1] is “exert matrix production promoting activity”.

In the case of `COc1cc2cc(CO)c(CO)c(-c3ccnc(-n4ccc5ccccc5c4=O)c3)c2cc1OC` [Compound No. 56], in test [2], the “Proteoglycan Production (%)” value was 168%.

As for `CCOc1cc2cc(CO)c(CO)c(-c3ccn(CCOC)c(=O)c3)c2cc1OCC` [Compound (1)], the “Expression of Type II collagen gene (%)” value came to 406% in test [3] (10^−4 M) and 278% in test [3] (10^−5 M). In addition, in test [4] (fraction Nos. 28-30, FIG. 4), the “inhibition of the hydrolytic activity of the fraction” value is reported as “inhibits the hydrolytic activity of the fraction strongly”. In addition, in test [4] (method of Journal of Medicinal Chemistry, vol. 42, 1088-1099 (1999), values only in FIG. 4), the “IC50 for fraction(s)” value is listed as “consistent with the IC50 of PDE4 inhibition activity described in the same literature”. The results for the “Expression of aggrecan gene (%)” value in test [5] (10^−4 M) and in test [5] (10^−5 M) were 4262% and 2693%, respectively. The “Proteoglycan Production (%)” value in test [1] (1 × 10^−4 M) is 144%; in test [1] (1 × 10^−5 M) it was 133%. For the same compound, the “matrix production promoting activity” value in test [1] is recorded as “exert matrix production promoting activity”.

Take `COc1cc2c(cc1OC)C(c1ccnc(-n3ccc4c(OCCN5CCOCC5)cccc4c3=O)c1)=N[C@H](CO)C2` [Compound No. 52]: the “Proteoglycan Production (%)” value in test [2] stood at 209%.

In the case of `COc1ccc(/C(C)=N/OC(N)=O)cc1OC1CCCC1` [Compound (9)], the “Proteoglycan Production (%)” value in test [1] (1 × 10^−5 M) worked out at 138%; in test [1] (1 × 10^−6 M) it was 128%. Also, the “matrix production promoting activity” value in test [1] is on record as “exert matrix production promoting activity”.

The record behind these values is US8399466B2, “Composition for regenerative treatment of cartilage disease” (Mitsubishi Tanabe Pharma Corporation, priority 2001, dated 2013).
